The source of these data is patent publication US12077501B2, “Compounds and compositions for intracellular delivery of agents” (ModernaTX, Inc., priority 2017, dated 2024).

The nature of data set [1]: Lipid purity change after storage in EtOH for 96 h at 25 or 37 °C. Type of data set: physicochemical. An outline of the steps:
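Lipid stability was assessed as purity after storage in ethanol for 96 h at 25 °C or 37 °C.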

A short description of data set [2]: Particle size and polydispersity index of nanoparticle compositions (Zetasizer Nano ZS). Type of data set: physicochemical. The conditions noted are these: Table 1c; nanoparticle compositions. As to the method: A Zetasizer Nano ZS (Malvem Instruments Ltd, Malvem, Worcestershire, UK) can be used to determine the particle size, the polydispersity index (PDI) and the zeta potential of the nanoparticle compositions in 1×PBS in determining particle size and 15 mM PBS in determining zeta potential.

For the next data set, the system named is hEPO expression. The experiment in a line: hEPO expression in CD-1 mice compared with MC3. In kind it is in vivo. The conditions noted are these: intravenous, 0.5 mpk, Table 7e. The source says:
In contrast, hEPO expression in rats induced by administration of a nanoparticle composition including a compound according to one of formulae (I), (Ia1)-(Ia6), (Ib), (II), (IIa), (III), and (IIIa) was substantially […] than that measured for MC3. […] Tables 7c and 7d show additional protein expressions and clearance data from compositions with various compounds disclosed herein as compared to with MC3. Tables 7e, 7f and 7g show hEPO expression data in CD-1 mice at a dose of 0.5 mpk.

Data set [3] is described as follows: Lipid clearance: % dose remaining in liver of CD-1 mice. Type of data set: in vivo. The conditions noted are these: intravenous, 0.5 mg/kg, CD-1 mouse, Table 8a. The method, boiled down: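 Nanoparticle compositions of the disclosed lipids given intravenously and benchmarked against MC3. Protein expression reported as AUC (p/s*h) and clearance as % dose remaining in liver of CD-1 mice; hEPO expression in CD-1 mice measured at 0.5 mpk.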

Data set [4] can be described thus: Encapsulation efficiency of RNA (QUANT-IT RIBOGREEN RNA assay). In kind it is physicochemical. The conditions noted are these: Table 1c; nanoparticle compositions. The method, boiled down: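 Samples diluted to about 5 μg/mL RNA in TE buffer pH 7.5, treated with buffer or 2% Triton X-100 for 15 min at 37° C, then stained with RiboGreen (1:100). Fluorescence at about 480/520 nm, blank-subtracted; free RNA fraction is intact over Triton-disrupted signal.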

The nature of data set [5]: pKa of nanoparticle compositions. In kind it is physicochemical. The conditions noted are these: Table 1c.

Broadly, the pKa is the pH at which an ionisable group is half protonated. With `CCCCCCCCCN(CCCCCCCCC)CCN(CCCCCCCCC)CC(=O)N1CCN(C(=O)C(C)N(CCCCCCCCC)CCCC(=O)OCCCCC)CC1` (stereo not drawn) [Compound 111, Pentyl 4-((1-(4-(N-(2-(dinonylamino)ethyl)-N-nonylglycyl)piperazin-1-yl)-1-oxopropan-2-yl)(nonyl)amino)butanoate], in data set [1], the “Lipid % change purity in EtOH, 25° C., 96 h” value came out at 6.3% and the “Lipid % change purity in EtOH, 37° C., 96 h” value turned out to be 6.5%. For the same compound, in data set [2], the PDI came out at 0.21 and the “Size (nm)” value is recorded as 86.8 nm. The “AUC (p/s*h) CD-1 mice 0.5 mpk” value with hEPO expression was found to be 1.75E+08 p/s*h. The “% Dose Remaining 24 hr” value in data set [3] turned out to be 59.89%. Besides, the “EE (%)” value in data set [4] stood at 96.7%. This compound came in with a pKa in data set [5] of 6.82.

For `CCCCCCCCCN(CCCCCCCCC)CCN(CCCCCCCCC)CC(=O)N1CCC(CCOC(=O)CN(CCCCCCCCC)CCCCCCCCC)CC1` [Compound 114, 2-(1-(N-(2-(Dinonylamino)ethyl)-N-nonylglycyl)piperidin-4-yl)ethyl dinonylglycinate], in data set [1], the “Lipid % change purity in EtOH, 25° C., 96 h” value amounted to 2.6% and the “Lipid % change purity in EtOH, 37° C., 96 h” value worked out at 9%. For the same compound, in data set [2], the PDI worked out at 0.23 and the “Size (nm)” value amounted to 77.2 nm. Besides, the “AUC (p/s*h) CD-1 mice 0.5 mpk” value in the data set with hEPO expression worked out at 7.86E+07 p/s*h. Besides, in data set [3], the “% Dose Remaining 24 hr” value was determined as 38.43%. In addition, in data set [4], the “EE (%)” value is given as 98.1%. Further, the pKa in data set [5] came to 6.64.

As to `CCCCCCCCCN(CCCCCCCCC)CCN(CCCCCCCCC)CC(=O)OC1CCC(OC(=O)CN(CCCCCCCCC)CCCCCCCCC)CC1` (stereo not drawn) [Compound 115, 4-((N-(2-(Dinonylamino)ethyl)-N-nonylglycyl)oxy)cyclohexyl dinonylglycinate], in data set [1], the “Lipid % change purity in EtOH, 25° C., 96 h” value stood at 43.1% and the “Lipid % change purity in EtOH, 37° C., 96 h” value amounted to 59.5%. Further, in data set [2], the PDI is on record as 0.16 and the “Size (nm)” value was 66.0 nm. Moreover, in the data set on hEPO expression, the “AUC (p/s*h) CD-1 mice 0.5 mpk” value is reported as 2.31E+06 p/s*h. The “% Dose Remaining 24 hr” value in data set [3] was 82.18%. In addition, the “EE (%)” value in data set [4] was determined as 97.0%. Also, the pKa in data set [5] stood at 5.01.

Regarding `CCCCCCCCCCCCCCN(CCCCCCCCCCCC(=O)OC)CCC1CCN(C(=O)CN(CCCCCCCCC)CCN(CCCCCCCCC)CCCCCCCCC)CC1` [Compound 116, Methyl 12-((2-(1-(N-(2-(dinonylamino)ethyl)-N-nonylglycyl)piperidin-4-yl)ethyl)(tetradecyl)amino)dodecanoate], in data set [1], the “Lipid % change purity in EtOH, 25° C., 96 h” value was 2.2% and the “Lipid % change purity in EtOH, 37° C., 96 h” value is 2%. Moreover, in data set [2], the PDI is reported as 0.19 and the “Size (nm)” value is 77.1 nm. In the data set on hEPO expression, the “AUC (p/s*h) CD-1 mice 0.5 mpk” value is listed as 1.01E+08 p/s*h. In addition, the “% Dose Remaining 24 hr” value in data set [3] turned out to be 6.22%. The “EE (%)” value in data set [4] was found to be 98.9%. In data set [5], this compound gave a pKa of 6.55.

Regarding `CCCCCCCCCCCCCCN(CCCCCCCCCCCC(=O)OC)CC(=O)N1CCN(C(=O)CN(CCCCCCCCC)CCN(CCCCCCCCC)CCCCCCCCC)CC1` [Compound 117, Methyl 12-((2-(4-(N-(2-(dinonylamino)ethyl)-N-nonylglycyl)piperazin-1-yl)-2-oxoethyl)(tetradecyl)amino)dodecanoate], in data set [1], the “Lipid % change purity in EtOH, 25° C., 96 h” value was determined as 2.9% and the “Lipid % change purity in EtOH, 37° C., 96 h” value came to 4.7%. Also, in data set [2], the PDI worked out at 0.20 and the “Size (nm)” value was found to be 84.6 nm. In addition, the “AUC (p/s*h) CD-1 mice 0.5 mpk” value with hEPO expression is given as 6.91E+07 p/s*h. The “% Dose Remaining 24 hr” value in data set [3] was 2.03%. Moreover, the “EE (%)” value in data set [4] came to 95.2%. In data set [5], this compound came in with a pKa of 6.71.

As for `CCCCCCCCCCCCCCN(CCCCCCCC(=O)OCCCCC)CCC1CCCN(C(=O)CN(CCCCCCCCC)CCN(CCCCCCCCC)CCCCCCCCC)C1` (stereo not drawn) [Compound 120, Pentyl 8-((2-(1-(N-(2-(dinonylamino)ethyl)-N-nonylglycyl)piperidin-3-yl)ethyl)(tetradecyl)amino)octanoate], in data set [1], the “Lipid % change purity in EtOH, 25° C., 96 h” value is reported as 0.8% and the “Lipid % change purity in EtOH, 37° C., 96 h” value was determined as 2.9%. Further, in data set [2], the PDI was 0.21 and the “Size (nm)” value was 78.7 nm. In addition, the “AUC (p/s*h) CD-1 mice 0.5 mpk” value in the data set with hEPO expression came out at 4.17E+07 p/s*h. The “% Dose Remaining 24 hr” value in data set [3] came out at 9.32%. Further, the “EE (%)” value in data set [4] worked out at 99.0%. The compound further came in with a pKa in data set [5] of 6.49.

`CCCCCCCCCCCCCCN(CCCCCC(=O)OCCCCCCC)CCC1CCCN(C(=O)CN(CCCCCCCCC)CCN(CCCCCCCCC)CCCCCCCCC)C1` (stereo not drawn) [Compound 121, Heptyl 6-((2-(1-(N-(2-(dinonylamino)ethyl)-N-nonylglycyl)piperidin-3-yl)ethyl)(tetradecyl)amino)hexanoate]: in data set [1], the “Lipid % change purity in EtOH, 25° C., 96 h” value came out at 0.3% and the “Lipid % change purity in EtOH, 37° C., 96 h” value is 1.5%. Also, in data set [2], the PDI is reported as 0.22 and the “Size (nm)” value was 75.7 nm. Further, the “AUC (p/s*h) CD-1 mice 0.5 mpk” value in the data set on hEPO expression is 2.84E+07 p/s*h. Further, the “% Dose Remaining 24 hr” value in data set [3] is on record as 13.97%. Further, the “EE (%)” value in data set [4] is 98.6%. The pKa in data set [5] was found to be 6.50.

Consider `CCCCCCCCCCCCCCN(CCCOC(=O)CCCCCCCCC)CCC1CCCN(C(=O)CN(CCCCCCCCC)CCN(CCCCCCCCC)CCCCCCCCC)C1` (stereo not drawn) [Compound 122, 3-((2-(1-(N-(2-(Dinonylamino)ethyl)-N-nonylglycyl)piperidin-3-yl)ethyl)(tetradecyl)amino)propyl decanoate], for which, in data set [1], the “Lipid % change purity in EtOH, 25° C., 96 h” value worked out at 1% and the “Lipid % change purity in EtOH, 37° C., 96 h” value is recorded as 4.1%. In addition, in data set [2], the PDI was 0.23 and the “Size (nm)” value was determined as 77.1 nm. In addition, in the data set with hEPO expression, the “AUC (p/s*h) CD-1 mice 0.5 mpk” value amounted to 5.71E+07 p/s*h. Further, the “% Dose Remaining 24 hr” value in data set [3] turned out to be 0.05%. Moreover, the “EE (%)” value in data set [4] was 99.1%. The pKa in data set [5] was 6.44.

In the case of `CCCCCCCCCCCCCCN(CCCCCCCC(=O)OCCCCC)CCC1CCN(C(=O)CN(CCCCCCCCC)CCN(CCCCCCCCC)CCCCCCCCC)C1` (stereo not drawn) [Compound 124, Pentyl 8-((2-(1-(N-(2-(dinonylamino)ethyl)-N-nonylglycyl)pyrrolidin-3-yl)ethyl)(tetradecyl)amino)octanoate], in data set [1], the “Lipid % change purity in EtOH, 25° C., 96 h” value is −4.6% and the “Lipid % change purity in EtOH, 37° C., 96 h” value is given as −3.5%. In data set [2], the PDI is given as 0.21 and the “Size (nm)” value stood at 92.7 nm. The “AUC (p/s*h) CD-1 mice 0.5 mpk” value in the data set with hEPO expression is given as 3.88E+07 p/s*h. Besides, the “% Dose Remaining 24 hr” value in data set [3] is listed as 5.60%. Moreover, the “EE (%)” value in data set [4] amounted to 99.2%. The compound further had a pKa in data set [5] of 6.94.

Turning to `CCCCCCCCCCCCCCN(CCCOC(=O)CCCCCCCCC)CCC1CCN(C(=O)CN(CCCCCCCCC)CCN(CCCCCCCCC)CCCCCCCCC)C1` (stereo not drawn) [Compound 126, 3-((2-(1-(N-(2-(Dinonylamino)ethyl)-N-nonylglycyl)pyrrolidin-3-yl)ethyl)(tetradecyl)amino)propyl decanoate], in data set [1], the “Lipid % change purity in EtOH, 25° C., 96 h” value is listed as 0.6% and the “Lipid % change purity in EtOH, 37° C., 96 h” value is listed as 2.2%. In data set [2], the PDI is 0.24 and the “Size (nm)” value stood at 87.0 nm. Moreover, in the data set with hEPO expression, the “AUC (p/s*h) CD-1 mice 0.5 mpk” value stood at 6.24E+07 p/s*h. For the same compound, the “% Dose Remaining 24 hr” value in data set [3] turned out to be 0.09%. The “EE (%)” value in data set [4] stood at 98.7%. In data set [5], the pKa stood at 6.76.

Consider `CCCCCCCCCCCCCCN(CCCCCCCCCCCC(=O)OC)CCC1CCN(C(=O)CN(CCCCCCCCC)CCN(CCCCCCCCC)CCCCCCCCC)C1` (stereo not drawn) [Compound 127, Methyl 12-((2-(1-(N-(2-(dinonylamino)ethyl)-N-nonylglycyl)pyrrolidin-3-yl)ethyl)(tetradecyl)amino)dodecanoate], for which, in data set [1], the “Lipid % change purity in EtOH, 25° C., 96 h” value is reported as 2.7% and the “Lipid % change purity in EtOH, 37° C., 96 h” value stood at 2.9%. For the same compound, in data set [2], the PDI was 0.20 and the “Size (nm)” value was 79.8 nm. Besides, the “AUC (p/s*h) CD-1 mice 0.5 mpk” value with hEPO expression worked out at 3.45E+07 p/s*h. Besides, in data set [3], the “% Dose Remaining 24 hr” value turned out to be 0.86%. The “EE (%)” value in data set [4] came to 99.5%. In addition, in data set [5], the pKa came out at 6.81.

On to `CCCCCCCCCN(CCCCCCCCC)CCOC(=O)C1CCC(C(=O)OCCN(CCCCCCCCC)CCN(CCCCCCCCC)CCCCCCCCC)CC1` (stereo not drawn) [Compound 128, 1-(2-(Dinonylamino)ethyl) 4-(2-((2-(dinonylamino)ethyl)(nonyl)amino)ethyl) cyclohexane-1,4-dicarboxylate], for which, in data set [1], the “Lipid % change purity in EtOH, 25° C., 96 h” value came out at 6.9% and the “Lipid % change purity in EtOH, 37° C., 96 h” value worked out at 12.2%. In addition, in data set [2], the PDI is 0.20 and the “Size (nm)” value was 68.0 nm. For the same compound, the “AUC (p/s*h) CD-1 mice 0.5 mpk” value with hEPO expression was 3.04E+05 p/s*h. Besides, the “% Dose Remaining 24 hr” value in data set [3] is reported as 52.19%. Also, the “EE (%)” value in data set [4] turned out to be 97.1%. The compound further came in with a pKa in data set [5] of 4.93.
